Structures are written as SMILES. Structures can show the parent of a compound that is named as a salt. A value given as a limit tells only on which side of the number the result lay.

The target of the first experiment is T1, Human MAO-A (Homo sapiens, UniProt P21397).
T1 sequence (P21397 1-527): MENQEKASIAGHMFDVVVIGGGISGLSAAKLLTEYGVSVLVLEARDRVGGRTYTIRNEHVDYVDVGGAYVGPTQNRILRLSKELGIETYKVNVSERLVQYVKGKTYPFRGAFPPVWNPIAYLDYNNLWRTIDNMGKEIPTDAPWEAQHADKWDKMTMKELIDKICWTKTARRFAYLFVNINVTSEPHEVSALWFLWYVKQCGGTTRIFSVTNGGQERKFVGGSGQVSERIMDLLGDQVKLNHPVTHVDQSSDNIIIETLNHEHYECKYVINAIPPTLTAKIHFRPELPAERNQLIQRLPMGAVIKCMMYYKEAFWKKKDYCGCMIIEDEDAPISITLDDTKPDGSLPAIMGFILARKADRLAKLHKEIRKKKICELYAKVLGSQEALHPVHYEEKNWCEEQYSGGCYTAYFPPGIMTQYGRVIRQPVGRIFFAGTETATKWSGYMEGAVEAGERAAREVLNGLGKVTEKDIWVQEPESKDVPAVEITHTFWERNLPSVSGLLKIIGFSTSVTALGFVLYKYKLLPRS
Put plainly: MAO-A inhibition (Amplex Red continuous fluorescence assay). It is filed as biochemical. Particulars: 30 min pre-incubation at room temp; substrate tyramine; read-out: Human MAO-A IC50. The method, boiled down:
(§1)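 Continuous Amplex Red/HRP fluorescence read of H2O2 (ex/em 510/565 nm, 5 min). Substrates and buffers: VAP-1 benzylamine, […] sodium phosphate pH 7.4, 30 min 37° C preincubation; MAO-A tyramine and MAO-B benzylamine, same buffer, room temp; DAO histamine, 50 mM HEPES pH 7.5, room temp. IC50 from 4-parameter fit of rates.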
In general, IC50 refers to the concentration that gives 50% inhibition. Turning to `Cn1ccc(-c2ccc(OC/C(=C/F)CN)cc2)n1` [Compound 50, (E)-3-fluoro-2-((4-(1-methyl-1H-pyrazol-3-yl)phenoxy)methyl)prop-2-en-1-amine hydrochloride], the IC50 was in the range of 3 to 10 µM.

Turning to `NC/C(=C/F)COc1cccc2c1OCO2` [Compound 16, (Z)-2-((benzo[d][1,3]dioxol-4-yloxy)methyl)-3-fluoroprop-2-en-1-amine hydrochloride], the IC50 is below 3 µM.

As to `CC(C)(C)NC(=O)c1ccc(NC/C(=C/F)CN)cc1` [Compound 45, (E)-4-((2-(aminomethyl)-3-fluoroalkyl)amino)-n-(tert-butyl)benzamide hydrochloride], the IC50 was above 10 µM.

Consider `NC/C(=C/F)COc1ccc(-c2nc3ccccc3[nH]2)cc1` [Compound 11, (Z)-2-((4-(1H-benzo[d]imidazol-2-yl)phenoxy)methyl)-3-fluoroprop-2-en-1-amine hydrochloride], for which the IC50 was below 3 µM.

For `CCNC(=O)N(C)c1ccc(NC/C(=C\F)CN)cc1` [Compound 67, (Z)-1-(4-((2-(aminomethyl)-3-fluoroalkyl)amino)phenyl)-3-ethyl-1-methylurea], the IC50 is above 10 µM.

For the molecule `CO[C@H]1CCN(c2ncc(OC/C(=C/F)CN)cn2)C1` [Compound 81], the IC50 was above 10 µM.

Take `Cn1nccc1-c1ccc(OC/C(=C\F)CN)cc1` [Compound 49, (Z)-3-fluoro-2-((4-(1-methyl-1H-pyrazol-5-yl)phenoxy)methyl)prop-2-en-1-amine hydrochloride]: the IC50 is below 3 µM.

Take `NC/C(=C\F)CN1CCc2ccccc21` [Compound 62, (E)-3-fluoro-2-(indolin-1-ylmethyl)prop-2-en-1-amine hydrochloride]: the IC50 is above 10 µM.

A further experiment has as its target T2, Human VAP-1 (Homo sapiens, UniProt Q16853).
T2 sequence (Q16853 1-763): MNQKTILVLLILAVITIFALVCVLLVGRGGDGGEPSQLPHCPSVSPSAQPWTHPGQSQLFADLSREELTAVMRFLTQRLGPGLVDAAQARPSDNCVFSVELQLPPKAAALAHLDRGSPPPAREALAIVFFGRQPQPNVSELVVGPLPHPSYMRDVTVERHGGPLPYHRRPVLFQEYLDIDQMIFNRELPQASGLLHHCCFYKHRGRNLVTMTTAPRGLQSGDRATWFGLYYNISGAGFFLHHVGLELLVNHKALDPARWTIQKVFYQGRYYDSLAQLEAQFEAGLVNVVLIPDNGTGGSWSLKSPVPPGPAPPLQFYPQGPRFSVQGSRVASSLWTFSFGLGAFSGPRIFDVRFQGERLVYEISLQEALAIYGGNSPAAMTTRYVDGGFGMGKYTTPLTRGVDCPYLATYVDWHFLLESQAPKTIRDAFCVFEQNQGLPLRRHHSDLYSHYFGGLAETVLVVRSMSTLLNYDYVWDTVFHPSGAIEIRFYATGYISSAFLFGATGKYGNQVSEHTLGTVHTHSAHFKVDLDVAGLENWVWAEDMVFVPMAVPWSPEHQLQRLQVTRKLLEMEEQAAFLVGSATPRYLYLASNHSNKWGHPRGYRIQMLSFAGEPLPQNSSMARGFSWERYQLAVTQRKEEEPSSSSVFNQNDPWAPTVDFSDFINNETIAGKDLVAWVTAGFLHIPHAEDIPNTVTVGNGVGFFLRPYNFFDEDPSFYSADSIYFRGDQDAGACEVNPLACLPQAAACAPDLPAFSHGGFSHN
Put plainly: VAP-1 inhibition assay (Amplex Red continuous fluorescence assay). It is filed as biochemical. The note with it: 30 min pre-incubation at 37° C.; substrate benzylamine; read-out: Human VAP-1 IC50. The method, boiled down: as §1
With `Cn1ccc(-c2ccc(OC/C(=C/F)CN)cc2)n1` [Compound 50, (E)-3-fluoro-2-((4-(1-methyl-1H-pyrazol-3-yl)phenoxy)methyl)prop-2-en-1-amine hydrochloride], the IC50 is below 3 µM.

For the molecule `NC/C(=C/F)COc1cccc2c1OCO2` [Compound 16, (Z)-2-((benzo[d][1,3]dioxol-4-yloxy)methyl)-3-fluoroprop-2-en-1-amine hydrochloride], the IC50 was below 3 µM.

Consider `CC(C)(C)NC(=O)c1ccc(NC/C(=C/F)CN)cc1` [Compound 45, (E)-4-((2-(aminomethyl)-3-fluoroalkyl)amino)-n-(tert-butyl)benzamide hydrochloride], for which the IC50 is below 3 µM.

With `NC/C(=C/F)COc1ccc(-c2nc3ccccc3[nH]2)cc1` [Compound 11, (Z)-2-((4-(1H-benzo[d]imidazol-2-yl)phenoxy)methyl)-3-fluoroprop-2-en-1-amine hydrochloride], the 50% inhibitory concentration (IC50) was below 3 µM.

`CCNC(=O)N(C)c1ccc(NC/C(=C\F)CN)cc1` [Compound 67, (Z)-1-(4-((2-(aminomethyl)-3-fluoroalkyl)amino)phenyl)-3-ethyl-1-methylurea]: the IC50 is below 3 µM.

For `CO[C@H]1CCN(c2ncc(OC/C(=C/F)CN)cn2)C1` [Compound 81], the IC50 was below 3 µM.

With `Cn1nccc1-c1ccc(OC/C(=C\F)CN)cc1` [Compound 49, (Z)-3-fluoro-2-((4-(1-methyl-1H-pyrazol-5-yl)phenoxy)methyl)prop-2-en-1-amine hydrochloride], the IC50 is below 3 µM.

As for `NC/C(=C\F)CN1CCc2ccccc21` [Compound 62, (E)-3-fluoro-2-(indolin-1-ylmethyl)prop-2-en-1-amine hydrochloride], the IC50 is below 3 µM.

The target in another experiment is T3, Human DAO (Homo sapiens, UniProt P19801).
T3 sequence (P19801 20-751): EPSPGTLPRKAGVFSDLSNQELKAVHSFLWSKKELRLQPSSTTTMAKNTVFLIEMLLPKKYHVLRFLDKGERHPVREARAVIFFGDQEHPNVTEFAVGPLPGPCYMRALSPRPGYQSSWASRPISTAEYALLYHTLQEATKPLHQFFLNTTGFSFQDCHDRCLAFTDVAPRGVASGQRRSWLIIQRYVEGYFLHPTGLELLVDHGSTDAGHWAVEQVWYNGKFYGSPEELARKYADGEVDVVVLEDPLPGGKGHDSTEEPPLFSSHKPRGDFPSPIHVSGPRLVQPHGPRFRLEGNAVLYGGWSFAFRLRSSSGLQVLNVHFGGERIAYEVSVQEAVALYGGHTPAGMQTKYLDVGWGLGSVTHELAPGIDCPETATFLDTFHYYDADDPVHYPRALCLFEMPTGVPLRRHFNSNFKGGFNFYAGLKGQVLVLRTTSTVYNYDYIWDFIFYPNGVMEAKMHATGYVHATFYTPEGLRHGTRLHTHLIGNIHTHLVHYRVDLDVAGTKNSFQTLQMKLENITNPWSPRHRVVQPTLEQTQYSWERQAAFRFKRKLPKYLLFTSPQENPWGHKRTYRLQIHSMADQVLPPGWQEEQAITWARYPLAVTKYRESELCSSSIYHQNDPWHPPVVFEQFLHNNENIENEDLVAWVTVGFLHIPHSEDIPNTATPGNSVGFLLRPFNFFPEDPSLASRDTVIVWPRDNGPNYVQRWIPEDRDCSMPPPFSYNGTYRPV
Put plainly: DAO inhibition (Amplex Red continuous fluorescence assay). It is filed as biochemical. The note with it: 30 min pre-incubation at room temp; substrate histamine; read-out: Human DAO IC50. The method in brief:
as §1
For `Cn1ccc(-c2ccc(OC/C(=C/F)CN)cc2)n1` [Compound 50, (E)-3-fluoro-2-((4-(1-methyl-1H-pyrazol-3-yl)phenoxy)methyl)prop-2-en-1-amine hydrochloride], the IC50 is below 3 µM.

Regarding `NC/C(=C/F)COc1cccc2c1OCO2` [Compound 16, (Z)-2-((benzo[d][1,3]dioxol-4-yloxy)methyl)-3-fluoroprop-2-en-1-amine hydrochloride], the IC50 was below 3 µM.

For the molecule `CC(C)(C)NC(=O)c1ccc(NC/C(=C/F)CN)cc1` [Compound 45, (E)-4-((2-(aminomethyl)-3-fluoroalkyl)amino)-n-(tert-butyl)benzamide hydrochloride], the IC50 was above 10 µM.

Consider `NC/C(=C/F)COc1ccc(-c2nc3ccccc3[nH]2)cc1` [Compound 11, (Z)-2-((4-(1H-benzo[d]imidazol-2-yl)phenoxy)methyl)-3-fluoroprop-2-en-1-amine hydrochloride], for which the half-inhibitory concentration (IC50) was below 3 µM.

Turning to `CCNC(=O)N(C)c1ccc(NC/C(=C\F)CN)cc1` [Compound 67, (Z)-1-(4-((2-(aminomethyl)-3-fluoroalkyl)amino)phenyl)-3-ethyl-1-methylurea], the IC50 is 3 to 10 µM.

Regarding `CO[C@H]1CCN(c2ncc(OC/C(=C/F)CN)cn2)C1` [Compound 81], the IC50 is below 3 µM.

Take `Cn1nccc1-c1ccc(OC/C(=C\F)CN)cc1` [Compound 49, (Z)-3-fluoro-2-((4-(1-methyl-1H-pyrazol-5-yl)phenoxy)methyl)prop-2-en-1-amine hydrochloride]: the IC50 was below 3 µM.

In the case of `NC/C(=C\F)CN1CCc2ccccc21` [Compound 62, (E)-3-fluoro-2-(indolin-1-ylmethyl)prop-2-en-1-amine hydrochloride], the half-maximal inhibitory concentration (IC50) was below 3 µM.

Another experiment deals with T4, Human MAO-B (Homo sapiens, UniProt P27338).
T4 sequence (P27338 1-520): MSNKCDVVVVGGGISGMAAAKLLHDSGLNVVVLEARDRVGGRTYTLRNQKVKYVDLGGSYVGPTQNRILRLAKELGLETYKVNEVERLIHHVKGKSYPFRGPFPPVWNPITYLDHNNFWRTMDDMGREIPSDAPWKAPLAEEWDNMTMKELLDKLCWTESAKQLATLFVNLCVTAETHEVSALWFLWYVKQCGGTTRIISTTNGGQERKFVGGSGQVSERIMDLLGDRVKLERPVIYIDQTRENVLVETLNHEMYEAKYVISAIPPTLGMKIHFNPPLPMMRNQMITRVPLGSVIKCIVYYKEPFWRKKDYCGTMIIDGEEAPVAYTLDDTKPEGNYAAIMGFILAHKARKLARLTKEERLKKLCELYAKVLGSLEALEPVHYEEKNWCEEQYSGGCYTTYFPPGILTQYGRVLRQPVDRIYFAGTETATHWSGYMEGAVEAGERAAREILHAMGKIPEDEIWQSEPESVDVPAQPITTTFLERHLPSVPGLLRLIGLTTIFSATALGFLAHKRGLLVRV
Put plainly: MAO-B inhibition (Amplex Red continuous fluorescence assay). The experiment is classed as biochemical. Particulars: 30 min pre-incubation at room temp; substrate benzylamine; read-out: Human MAO-B IC50. The method, boiled down: as §1
For `Cn1ccc(-c2ccc(OC/C(=C/F)CN)cc2)n1` [Compound 50, (E)-3-fluoro-2-((4-(1-methyl-1H-pyrazol-3-yl)phenoxy)methyl)prop-2-en-1-amine hydrochloride], the IC50 is below 3 µM.

With `NC/C(=C/F)COc1cccc2c1OCO2` [Compound 16, (Z)-2-((benzo[d][1,3]dioxol-4-yloxy)methyl)-3-fluoroprop-2-en-1-amine hydrochloride], the IC50 is below 3 µM.

For the molecule `CC(C)(C)NC(=O)c1ccc(NC/C(=C/F)CN)cc1` [Compound 45, (E)-4-((2-(aminomethyl)-3-fluoroalkyl)amino)-n-(tert-butyl)benzamide hydrochloride], the IC50 is below 3 µM.

Take `NC/C(=C/F)COc1ccc(-c2nc3ccccc3[nH]2)cc1` [Compound 11, (Z)-2-((4-(1H-benzo[d]imidazol-2-yl)phenoxy)methyl)-3-fluoroprop-2-en-1-amine hydrochloride]: the half-maximal inhibitory concentration (IC50) is below 3 µM.

As for `CCNC(=O)N(C)c1ccc(NC/C(=C\F)CN)cc1` [Compound 67, (Z)-1-(4-((2-(aminomethyl)-3-fluoroalkyl)amino)phenyl)-3-ethyl-1-methylurea], the IC50 fell in the range of 3 to 10 µM.

Turning to `CO[C@H]1CCN(c2ncc(OC/C(=C/F)CN)cn2)C1` [Compound 81], the half-maximal inhibitory concentration (IC50) is above 10 µM.

Take `Cn1nccc1-c1ccc(OC/C(=C\F)CN)cc1` [Compound 49, (Z)-3-fluoro-2-((4-(1-methyl-1H-pyrazol-5-yl)phenoxy)methyl)prop-2-en-1-amine hydrochloride]: the IC50 was below 3 µM.

Turning to `NC/C(=C\F)CN1CCc2ccccc21` [Compound 62, (E)-3-fluoro-2-(indolin-1-ylmethyl)prop-2-en-1-amine hydrochloride], the IC50 was above 10 µM.

For the origin of these results see patent publication US20210238192A1, “VASCULAR ADHESION PROTEIN-1 (VAP-1) MODULATORS AND THERAPEUTIC USES THEREOF” (Blade Therapeutics, Inc., priority 2018, published 2021).
